Reference: patent publication US9796704B2, “Substituted quinazolines as receptor-type kinase inhibitors” (Symphony Evolution, Inc., priority 2002, dated 2017)

What was measured:
[1] = biological target: EphB4 (Homo sapiens (Human), UniProt P54760); test: EphB4 kinase inhibition, 33P phosphoryl transfer assay (radiometric); format: biochemical
[2] = biological target: EphA2 (Homo sapiens (Human), UniProt P29317); test: EphA2 kinase inhibition, luciferase-coupled chemiluminescent assay (LCCA); settings: read-out: EphA2 IC50
Chain of EphA2 (P29317 598-890): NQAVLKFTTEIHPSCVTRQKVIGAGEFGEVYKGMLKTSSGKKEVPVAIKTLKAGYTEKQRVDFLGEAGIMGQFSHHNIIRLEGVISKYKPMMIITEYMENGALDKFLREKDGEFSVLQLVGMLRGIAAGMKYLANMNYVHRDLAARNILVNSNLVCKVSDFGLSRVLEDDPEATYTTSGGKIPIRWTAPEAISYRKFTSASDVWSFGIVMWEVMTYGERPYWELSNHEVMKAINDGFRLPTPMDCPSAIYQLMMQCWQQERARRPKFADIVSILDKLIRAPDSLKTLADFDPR

[3] = biological target: EGFR (Homo sapiens (Human), UniProt P00533); test: EGFR kinase inhibition, luciferase-coupled chemiluminescent assay (LCCA); settings: read-out: EGFR IC50
Experimental: Kinase activity and compound inhibition are investigated using one or more of the three assay formats described below. The ATP concentrations are selected near its Michaelis-Menten constant (KM) for each individual kinase. Dose-response experiments are performed at ten different inhibitor concentrations in a 384-well plate format. […] Typically H is close to unity.
In the LCCA assays, kinase activity is measured by the ATP consumption that is accurately measured by luciferase-coupled chemiluminescence. Greiner 384-well white clear bottom medium binding plates are used for LCCA. Briefly the kinase reaction is initiated by mixing compounds, ATP and kinases in a 20 μL volume. At the end of the kinase reaction, a 20 μL luciferase-luciferin mix is added and the chemiluminescent signal is read on a Wallac Victor^2 reader.

[4] = biological target: KDR (Homo sapiens (Human), UniProt P35968); test: KDR kinase inhibition, luciferase-coupled chemiluminescent assay (LCCA); settings: read-out: KDR IC50
Chain of KDR (P35968 807-1356): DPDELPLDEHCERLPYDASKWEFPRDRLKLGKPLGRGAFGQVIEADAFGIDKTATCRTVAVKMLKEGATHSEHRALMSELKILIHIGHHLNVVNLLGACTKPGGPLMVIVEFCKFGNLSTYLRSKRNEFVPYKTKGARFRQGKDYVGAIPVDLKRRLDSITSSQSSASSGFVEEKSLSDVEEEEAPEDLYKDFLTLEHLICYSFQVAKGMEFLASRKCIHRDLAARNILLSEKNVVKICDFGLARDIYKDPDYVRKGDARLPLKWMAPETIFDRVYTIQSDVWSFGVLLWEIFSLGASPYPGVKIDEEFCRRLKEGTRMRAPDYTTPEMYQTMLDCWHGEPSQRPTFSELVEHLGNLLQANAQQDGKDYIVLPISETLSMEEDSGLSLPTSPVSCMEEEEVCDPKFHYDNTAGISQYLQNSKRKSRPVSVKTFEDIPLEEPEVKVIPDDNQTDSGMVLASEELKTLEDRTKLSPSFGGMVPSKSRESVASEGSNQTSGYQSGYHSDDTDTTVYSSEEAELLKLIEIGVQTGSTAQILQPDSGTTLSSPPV

Chain of EphB4 (P54760 605-890): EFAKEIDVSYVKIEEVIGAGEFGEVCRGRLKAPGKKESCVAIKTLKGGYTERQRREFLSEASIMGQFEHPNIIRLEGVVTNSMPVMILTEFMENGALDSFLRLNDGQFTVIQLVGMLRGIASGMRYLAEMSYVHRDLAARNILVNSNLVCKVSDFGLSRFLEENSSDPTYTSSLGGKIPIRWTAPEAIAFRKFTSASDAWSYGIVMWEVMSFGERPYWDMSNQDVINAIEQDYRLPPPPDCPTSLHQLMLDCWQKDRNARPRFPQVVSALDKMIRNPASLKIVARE

Compound | IC50 [1] | IC50 [2] | IC50 [3] | IC50 [4]
COc1cc2c(Nc3ccc(Br)c(Cl)c3)ncnc2cc1O[C@H]1CO[C@@H]2[C@@H](OC)[C@H](OC)O[C@@H]21 [Example 79, methyl 3,6-anhydro-5-O-[4-[(4-bromo-3-chlorophenyl)amino]-6-(methyloxy)quinazolin-7-yl]-2-O-methyl-alpha-L-idofuranoside] | < 0.05 µM | < 0.05 µM | < 0.05 µM | < 0.05 µM
COc1cc2c(Nc3ccc(F)c(C(F)(F)F)c3)ncnc2cc1O[C@@H]1CO[C@@H]2[C@H]1OC[C@H]2F [Example 89, 1,4:3,6-dianhydro-2-deoxy-2-fluoro-5-O-[4-{[4-fluoro-3-(trifluoromethyl)phenyl]amino}-6-(methyloxy)quinazolin-7-yl]-D-iditol] | – | < 0.05 µM | < 0.05 µM | < 0.05 µM
COc1cc2c(Nc3cc(F)cc(F)c3)ncnc2cc1O[C@@H]1CO[C@@H]2[C@H]1OC[C@H]2F [Example 94, 1,4:3,6-dianhydro-2-deoxy-5-O-[4-[(3,5-difluorophenyl)amino]-6-(methyloxy)quinazolin-7-yl]-2-fluoro-D-iditol] | < 0.05 µM | < 0.05 µM | < 0.05 µM | < 0.05 µM
COc1cc2c(Nc3ccc(Cl)c(Cl)c3F)ncnc2cc1O[C@@H]1CO[C@@H]2[C@H]1OC[C@H]2F [Example 97, 1,4:3,6-dianhydro-2-deoxy-5-O-[4-[(3,4-dichloro-2-fluorophenyl)amino]-6-(methyloxy)quinazolin-7-yl]-2-fluoro-D-iditol] | < 0.05 µM | – | < 0.05 µM | < 0.05 µM
COc1cc2c(Nc3cc(F)c(F)cc3F)ncnc2cc1O[C@@H]1CO[C@@H]2[C@H]1OC[C@H]2F [Example 99, 1,4:3,6-dianhydro-2-deoxy-2-fluoro-5-O-{6-(methyloxy)-4-[(2,4,5-trifluorophenyl)amino]quinazolin-7-yl}-D-iditol] | < 0.05 µM | < 0.05 µM | < 0.05 µM | < 0.05 µM
COc1cc2c(Nc3cc(Cl)c(Cl)c(Cl)c3)ncnc2cc1O[C@@H]1CO[C@@H]2[C@H]1OC[C@H]2F [Example 107, 1,4:3,6-dianhydro-2-deoxy-2-fluoro-5-O-{6-(methyloxy)-4-[(3,4,5-trichlorophenyl)amino]quinazolin-7-yl}-D-iditol] | < 0.05 µM | < 0.05 µM | < 0.05 µM | < 0.05 µM
COc1cc2c(Nc3ccc(C(F)(F)F)cc3Br)ncnc2cc1O[C@@H]1CO[C@@H]2[C@H]1OC[C@H]2F [Example 125, 1,4:3,6-dianhydro-5-O-[4-{[2-bromo-4-(trifluoromethyl)phenyl]amino}-6-(methyloxy)quinazolin-7-yl]-2-deoxy-2-fluoro-D-iditol] | < 0.05 µM | < 0.05 µM | < 0.05 µM | < 0.05 µM
COc1cc2c(Nc3ccc(Cl)c(Cl)c3)ncnc2cc1OCc1nc(CN2CCN(C)CC2)no1 [Example 140, N-(3,4-dichlorophenyl)-6-(methyloxy)-7-[({3-[(4-methylpiperazin-1-yl)methyl]-1,2,4-oxadiazol-5-yl}methyl)oxy]quinazolin-4-amine] | < 0.05 µM | – | < 0.05 µM | < 0.05 µM
COc1cc2c(Nc3ccc(Cl)c(Cl)c3)ncnc2cc1OCc1noc(C)c1-c1ccccc1 [Example 161, N-(3,4-dichlorophenyl)-6-(methyloxy)-7-{[(5-methyl-4-phenylisoxazol-3-yl)methyl]oxy}quinazolin-4-amine] | < 0.05 µM | – | < 0.05 µM | < 0.05 µM
COc1cc2c(Nc3ccc(Cl)c(Cl)c3)ncnc2cc1OCc1noc(C2CCN(C(=O)OC(C)(C)C)CC2)n1 [Example 197, 1,1-dimethylethyl 4-[3-({[4-[(3,4-dichlorophenyl)amino]-6-(methyloxy)quinazolin-7-yl]oxy}methyl)-1,2,4-oxadiazol-5-yl]piperidine-1-carboxylate] | < 0.05 µM | 0.05 to 1 µM | < 0.05 µM | < 0.05 µM
COc1cc2c(Nc3ccc(Cl)c(Cl)c3)ncnc2cc1OCc1cc(Br)cc(Br)c1 [Example 232, 7-{[(3,5-dibromophenyl)methyl]oxy}-N-(3,4-dichlorophenyl)-6-(methyloxy)quinazolin-4-amine] | 0.05 to 1 µM | 0.05 to 1 µM | < 0.05 µM | < 0.05 µM
N-(3,4-dichlorophenyl)-6-(methyloxy)-7-{[(5-piperidin-2-yl-1,2,4-oxadiazol-3-yl)methyl]oxy}quinazolin-4-amine hydrochloride [Example 31] | < 0.05 µM | – | < 0.05 µM | < 0.05 µM

Other lines, results leading:

IC50 [1] | IC50 [2] | IC50 [3] | IC50 [4] | Compound
0.05 to 1 µM | 0.05 to 1 µM | < 0.05 µM | < 0.05 µM | COc1cc2c(Nc3ccc(Br)c(Cl)c3)ncnc2cc1O[C@H]1CO[C@H]2[C@@H]1OC[C@@H]2OC(F)F [Example 70, 1,4:3,6-dianhydro-2-O-[4-[(4-bromo-3-chlorophenyl)amino]-6-(methyloxy)quinazolin-7-yl]-5-O-(difluoromethyl)-L-iditol]
< 0.05 µM | < 0.05 µM | < 0.05 µM | < 0.05 µM | COc1cc2c(Nc3ccc(Br)cc3Cl)ncnc2cc1O[C@@H]1CO[C@@H]2[C@H]1OC[C@H]2F [Example 96, 1,4:3,6-dianhydro-5-O-[4-[(4-bromo-2-chlorophenyl)amino]-6-(methyloxy)quinazolin-7-yl]-2-deoxy-2-fluoro-D-iditol]
< 0.05 µM | < 0.05 µM | < 0.05 µM | < 0.05 µM | COc1cc2c(Nc3cc(Cl)c(Br)cc3F)ncnc2cc1O[C@@H]1CO[C@@H]2[C@H]1OC[C@H]2F [Example 98, 1,4:3,6-dianhydro-5-O-[4-[(4-bromo-5-chloro-2-fluorophenyl)amino]-6-(methyloxy)quinazolin-7-yl]-2-deoxy-2-fluoro-D-iditol]
< 0.05 µM | – | < 0.05 µM | < 0.05 µM | COc1cc2c(Nc3cc(F)c(Br)c(Cl)c3)ncnc2cc1O[C@@H]1CO[C@@H]2[C@H]1OC[C@H]2F [Example 104, 1,4:3,6-dianhydro-5-O-[4-[(4-bromo-3-chloro-5-fluorophenyl)amino]-6-(methyloxy)quinazolin-7-yl]-2-deoxy-2-fluoro-D-iditol]
< 0.05 µM | < 0.05 µM | < 0.05 µM | < 0.05 µM | COc1cc2c(Nc3ccc(Cl)c(Cl)c3Cl)ncnc2cc1O[C@@H]1CO[C@@H]2[C@H]1OC[C@H]2F [Example 106, 1,4:3,6-dianhydro-2-deoxy-2-fluoro-5-O-{6-(methyloxy)-4-[(2,3,4-trichlorophenyl)amino]quinazolin-7-yl}-D-iditol]
< 0.05 µM | < 0.05 µM | < 0.05 µM | < 0.05 µM | COc1cc2c(Nc3ccc(Br)cc3F)ncnc2cc1O[C@@H]1CO[C@@H]2[C@H]1OC[C@H]2F [Example 108, 1,4:3,6-dianhydro-5-O-[4-[(4-bromo-2-fluorophenyl)amino]-6-(methyloxy)quinazolin-7-yl]-2-deoxy-2-fluoro-D-iditol]
< 0.05 µM | – | < 0.05 µM | < 0.05 µM | COc1cc2c(Nc3ccc(Cl)c(Cl)c3)ncnc2cc1OCc1noc(CN(C)C)n1 [Example 138, N-(3,4-dichlorophenyl)-7-[({5-[(dimethylamino)methyl]-1,2,4-oxadiazol-3-yl}methyl)oxy]-6-(methyloxy)quinazolin-4-amine]
< 0.05 µM | – | < 0.05 µM | < 0.05 µM | COc1cc2c(Nc3ccc(Cl)c(Cl)c3)ncnc2cc1OCC1CN(C(=O)OC(C)(C)C)CCO1 (stereo not shown) [Example 148, 1,1-dimethylethyl 2-({[4-[(3,4-dichlorophenyl)amino]-6-(methyloxy)quinazolin-7-yl]oxy}methyl)morpholine-4-carboxylate]
< 0.05 µM | – | < 0.05 µM | < 0.05 µM | COc1cc2c(Nc3ccc(Cl)c(Cl)c3)ncnc2cc1OCC1CN(C)CCCO1 (stereo not shown) [Example 155, N-(3,4-dichlorophenyl)-7-{[(4-methyl-1,4-oxazepan-2-yl)methyl]oxy}-6-(methyloxy)quinazolin-4-amine]
< 0.05 µM | < 0.05 µM | < 0.05 µM | < 0.05 µM | COc1cc2c(Nc3ccc(Cl)c(Cl)c3)ncnc2cc1OCc1nc(-c2ccncc2)cs1 [Example 203, N-(3,4-dichlorophenyl)-6-(methyloxy)-7-{[(4-pyridin-4-yl-1,3-thiazol-2-yl)methyl]oxy}quinazolin-4-amine]
< 0.05 µM | < 0.05 µM | < 0.05 µM | < 0.05 µM | COc1cc2c(Nc3ccc(Cl)c(Cl)c3)ncnc2cc1OCc1nc(CN2CCCN(C)CC2)cs1 [Example 210, N-(3,4-dichlorophenyl)-7-[({4-[(4-methyl-1,4-diazepan-1-yl)methyl]-1,3-thiazol-2-yl}methyl)oxy]-6-(methyloxy)quinazolin-4-amine]
< 0.05 µM | 0.05 to 1 µM | < 0.05 µM | < 0.05 µM | COc1cc2c(Nc3ccc(Cl)c(Cl)c3)ncnc2cc1OCc1nc(N2CCN(C)CC2)no1 [Example 218, N-(3,4-dichlorophenyl)-6-(methyloxy)-7-({[3-(4-methylpiperazin-1-yl)-1,2,4-oxadiazol-5-yl]methyl}oxy)quinazolin-4-amine]
< 0.05 µM | 0.05 to 1 µM | < 0.05 µM | < 0.05 µM | COc1cc2c(Nc3ccc(Cl)c(Cl)c3)ncnc2cc1OCc1noc(-c2ccccc2)n1 [Example 235, N-(3,4-dichlorophenyl)-6-(methyloxy)-7-{[(5-phenyl-1,2,4-oxadiazol-3-yl)methyl]oxy}quinazolin-4-amine]
